# Experimental data: paper PMC6075749 (PLoS ONE, 2018)
# “And” between values parts separate entries of the source, which are not always exact repeats. Equal entries are not always repeated. “Also recorded” adds a separate entry of the source. Where two headings read alike, the source gives them in different places.
# Columns and labels:
# [1] = tested on: MMP-14 (catalytic domain); conditions: cited from earlier work
# pseudolysin [2] = target: T1, pseudolysin (Pseudomonas aeruginosa, UniProt P14756); parameters: purchased Calbiochem (San Diego, CA, USA); conditions: ref Grobelny D et al. [58]; cited from earlier work
# [3] = target: T2, recombinant human MMP-14 catalytic domain (Homo sapiens, UniProt P50281); test: Initial rate fluorescence assay, MMP-14 catalytic domain, substrate Mca-PLGLDpaAR-NH2 (Km, Ki); assay type: biochemical
# T2 construct: recombinant MMP-14 (catalytic domain) were from Calbiochem; purchased Calbiochem (San Diego, CA, USA)
# Description: (§1) To determine the kinetic and inhibitor kinetic coefficients Km, and Ki, initial rate experiments were performed using a Perkin Elmer LS 50 Luminescence spectrometer and the FL WinLab Software Package (Perkin Elmer). The reactions were followed for one minute and during that time 600 data points were collected. The excitation and emission wavelengths for the two fluorescence quenched MMP peptide substrates, McaPLGLDpaAR-NH2 and Mca-[…](Dpn)-OH were; λex = 320 nm, λem = 405 nm and a slit width = 10 nm at both wavelengths. All assays were performed at 37°C in an assay buffer of 0.1 M Hepes pH 7.5, 0.005% Brij-35, 10 mM CaCl2 and a total assay volume of 100 μl.
# (§2) The Km value was calculated from non-linear regression of the Michaelis-Menten equation using the Enzyme kinetic module in GraphPad Prism 5.
# (§3) A fixed substrate concentration of 5.0 μM and / or 10 μM and a fixed enzyme concentration along with varying concentrations of potential inhibitor were used to determine the inhibitory capacity of the two compounds. […] For a competitive inhibitor, the IC50 value equals Ki(1+[S]/Km). For tight binding competitive inhibitors (Ki ≤ [E]), the values of Ki and [E] were obtained by both a dose response plot (vi/v0 against [I]) using the Morrison equation [71] (2) and through the linear Henderson Plot (Eq 3). For tight binding inhibitors, the enzyme was pre-incubated for 15 min at 37°C in the presence of inhibitor and the reaction was started by the addition of substrate. Graph Pad Prism 5 was used to calculate Ki and [E] values.
# MMP-9 = conditions: cited from earlier work
# auerolysin = target: T3, auerolysin (Staphylococcus aureus, UniProt P81177); test: Initial rate fluorescence assay, auerolysin, substrate Mca-[…](Dnp)-OH (Km, Ki); assay type: biochemical
# T3 construct: purchased BioCentrum Ltd (Kraków, Poland)
# Description: as §1, §2, §3
# thermolysin [4] = target: T4, thermolysin (Bacillus thermoproteolyticus, UniProt P00800); parameters: purchased Calbiochem (San Diego, CA, USA); method as in Grobelny D et al. [58]; conditions: ref Grobelny D et al. [58]; cited from earlier work
# [5] = tested on: COc1ccc2c(CC(=O)N[C@@H](CCCNC(=N)N)C(=O)N3CCC[C@H]3C(=O)N3CCC[C@H]3C(=O)NCC(=O)N[C@@H](Cc3ccccc3)C(=O)N[C@@H](CO)C(=O)N[C@@H](C)C(=O)N[C@@H](Cc3ccccc3)C(=O)N[C@@H](CCCCNc3ccc([N+](=O)[O-])cc3[N+](=O)[O-])C(=O)O)cc(=O)oc2c1; test: Initial rate fluorescence assay, auerolysin, substrate Mca-[…](Dnp)-OH (Km, Ki); assay type: biochemical, staphylococcus aureus; conditions: other: low precision; Km far above highest usable substrate concentration (10 μM); pH 7.5; 37.0 °C
# Description: as §1, §2, §3
# [6] = tested on: COc1ccc2c(CC(=O)N[C@@H](CCCNC(=N)N)C(=O)N3CCC[C@H]3C(=O)N3CCC[C@H]3C(=O)NCC(=O)N[C@@H](Cc3ccccc3)C(=O)N[C@@H](CO)C(=O)N[C@@H](C)C(=O)N[C@@H](Cc3ccccc3)C(=O)N[C@@H](CCCCNc3ccc([N+](=O)[O-])cc3[N+](=O)[O-])C(=O)O)cc(=O)oc2c1; test: purified protein, by the assay type; conditions: pH 7.5, 37.0 °C
# [7] = target: four forms of activated MMP-9 (Homo sapiens, UniProt P14780); test: Ki across the four forms of activated MMP-9 (summary); assay type: biochemical; conditions: ratio of Ki values, compound 1b vs galardin
# Description: as §1, §3
# thermolysin [8] = target: T4, thermolysin; test: Initial rate fluorescence assay, thermolysin, substrate Mca-RPPGFSAFK(Dnp)-OH (Km, inhibition); conditions: N.I. = no inhibition up to 100 μM of inhibitor
# Description: as §1, §2
# (§4) A fixed substrate concentration of 5.0 μM and / or 10 μM and a fixed enzyme concentration along with varying concentrations of potential inhibitor were used to determine the inhibitory capacity of the two compounds. […] For a competitive inhibitor, the IC50 value equals Ki(1+[S]/Km). For tight binding competitive inhibitors (Ki ≤ [E]), the values of Ki and [E] were obtained by both a dose response plot (vi/v0 against [I]) using the Morrison equation [71] […]
# (§5) The IC50 values were determined from a dose response plot vi/v0 vs log [Inhibitor] as described previously.
# pseudolysin [9] = target: T1, pseudolysin; test: Initial rate fluorescence assay, pseudolysin, substrate Mca-RPPGFSAFK(Dnp)-OH (Km, inhibition); conditions: N.I. = no inhibition up to 100 μM of inhibitor
# Description: as §1, §2, §4, §5
# T4 sequence (P00800 233-548): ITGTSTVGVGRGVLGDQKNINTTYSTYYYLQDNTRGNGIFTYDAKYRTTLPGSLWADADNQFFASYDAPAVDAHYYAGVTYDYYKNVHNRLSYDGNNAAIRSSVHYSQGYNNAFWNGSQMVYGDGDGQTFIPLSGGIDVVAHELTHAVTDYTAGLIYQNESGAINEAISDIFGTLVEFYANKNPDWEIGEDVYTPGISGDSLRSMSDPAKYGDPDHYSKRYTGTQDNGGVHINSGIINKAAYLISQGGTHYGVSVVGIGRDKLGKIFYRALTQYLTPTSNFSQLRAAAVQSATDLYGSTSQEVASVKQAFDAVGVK
# T3 sequence (P81177 209-509): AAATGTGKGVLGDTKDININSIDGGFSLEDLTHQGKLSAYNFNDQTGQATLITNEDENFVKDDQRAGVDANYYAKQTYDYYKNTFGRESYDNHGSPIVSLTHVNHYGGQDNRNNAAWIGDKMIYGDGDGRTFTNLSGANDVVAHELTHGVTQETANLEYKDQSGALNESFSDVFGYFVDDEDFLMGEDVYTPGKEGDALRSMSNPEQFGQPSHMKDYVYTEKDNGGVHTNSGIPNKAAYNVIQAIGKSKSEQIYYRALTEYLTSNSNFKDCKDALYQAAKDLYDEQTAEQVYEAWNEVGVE
# T1 sequence (P14756 198-498): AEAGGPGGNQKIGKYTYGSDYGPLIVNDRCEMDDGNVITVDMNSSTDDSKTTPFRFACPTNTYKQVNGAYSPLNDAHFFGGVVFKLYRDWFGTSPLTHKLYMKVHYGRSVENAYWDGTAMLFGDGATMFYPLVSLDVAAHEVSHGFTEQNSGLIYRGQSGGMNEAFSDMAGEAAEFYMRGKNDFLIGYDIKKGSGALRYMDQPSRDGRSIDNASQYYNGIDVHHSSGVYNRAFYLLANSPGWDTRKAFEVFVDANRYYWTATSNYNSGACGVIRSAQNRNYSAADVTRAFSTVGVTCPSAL
# Chain of four forms of activated MMP-9 (P14780 107-508 limits assumed): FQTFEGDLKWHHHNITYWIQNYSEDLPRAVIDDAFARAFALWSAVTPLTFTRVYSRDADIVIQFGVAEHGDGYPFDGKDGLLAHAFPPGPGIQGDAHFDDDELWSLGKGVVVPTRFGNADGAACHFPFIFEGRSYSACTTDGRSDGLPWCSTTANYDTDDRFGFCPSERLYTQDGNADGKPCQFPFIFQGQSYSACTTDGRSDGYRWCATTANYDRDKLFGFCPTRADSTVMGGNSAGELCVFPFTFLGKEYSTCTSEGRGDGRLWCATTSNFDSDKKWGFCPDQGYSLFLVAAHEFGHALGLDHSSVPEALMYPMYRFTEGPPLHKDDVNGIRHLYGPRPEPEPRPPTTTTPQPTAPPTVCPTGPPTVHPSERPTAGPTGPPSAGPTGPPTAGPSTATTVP
compound,measurement,setting,value
CNC(=O)[C@H](Cc1c[nH]c2ccccc12)NC(=O)[C@@H](CC(=O)NO)CC(C)C [Galardin],IC50,[1],13.4 nM
same,Ki,pseudolysin [2],20 nM
same,Ki,"[3]; Ki ± s.d. per experiment, [S] 5.0 μM, read-out: Ki, Morrison equation, individual experiment",0.95 nM and 0.78 nM and 0.82 nM and 0.91 nM and 0.89 nM
same,Ki,"[3]; Ki ± s.d. per experiment, [S] 5.0 or 10.0 μM, read-out: Ki, Henderson plot, individual experiment",0.78 nM (2×) and 0.86 nM and 0.76 nM and 1.16 nM
same,Ki,"[3]; average ± S.E.M. of independent experiments, 37°C, pH 7.5, read-out: Ki, Henderson plot, average",0.87 ± 0.07 nM
same,Ki,"[3]; average ± S.E.M. of independent experiments, read-out: Ki, Morrison equation, average",0.87 nM
same,IC50,auerolysin,500 ± 40 nM
same,Ki,"auerolysin; Ki app from the slope of the Henderson plot, 3.6 nM enzyme, r2 = 0.84, N = 16",500 ± 60 nM
same,Ki,"auerolysin; Ki from Henderson plot, from Ki app, 3.6 nM enzyme",450 ± 50 nM
same,Ki,"auerolysin; Ki from IC50 (dose response plot, Eq (1))",450 nM
same,Ki,"auerolysin; Ki, from dose response plot using Eq (1), one experiment",452 ± 35 nM
same,"binding to auerolysin, times weaker than binding to thermolysin and pseudolysin",auerolysin; ratio of Ki values,about 25 times
same,Ki,thermolysin [4],20 nM
auerolysin (Staphylococcus aureus),Km,[5],47 ± 41 µM
thermolysin (Bacillus thermoproteolyticus),Km,[6]; other: substrate 0.5 to 10.0 μM,6 ± 1 µM
pseudolysin (Pseudomonas aeruginosa PAO1),Km,"[6]; other: low precision, Km far above highest usable substrate concentration (10 μM)",24 ± 8 µM
O=C(NO)[C@H]1[C@@H](O)[C@H](O)[C@H](O)CN1S(=O)(=O)c1ccc(Oc2ccccc2)cc1 [compound 1b],"interaction with MMP-9, times stronger than galardin",[7],5 to 10 times
same,Inhibitory effect (Ki: N.I.),thermolysin [8],no inhibitory effect and N.I.
same,Ki,"[3]; Ki, Henderson plot, average, average ± S.E.M. of independent experiments, 37°C, pH 7.5",0.088 nM and 0.09 nM
same,Ki,"[3]; Ki, Henderson plot, individual experiment, Ki ± s.d. per experiment, [S] 5.0 or 10.0 μM",0.074 nM and 0.128 nM and 0.081 nM and 0.07 nM and 0.08 nM
same,Ki,"[3]; Ki, Morrison equation, average, average ± S.E.M. of independent experiments",0.16 ± 0.02 nM
same,Ki,"[3]; Ki, Morrison equation, individual experiment, Ki ± s.d. per experiment, [S] 5.0 μM",0.16 nM (2×) and 0.21 nM
same,"interaction with MMP-14, times stronger than galardin","[3]; ratio of Ki values, compound 1b vs galardin",10 times
same,Ki,"[3]; read-out: Ki, Morrison equation, individual experiment",0.1 ± 0.06 nM
same,Ki,MMP-9,0.097 nM
same,Inhibitory effect (Ki: N.I.),auerolysin; N.I. = no inhibition up to 100 μM of inhibitor,no inhibitory effect; also recorded: N.I.^c
same,Inhibitory effect (Ki: N.I.),pseudolysin [9],no inhibitory effect and N.I.
